For data set [1] the following is noted: conscious dogs; cited from earlier work.
The test system of data set [2] is hepatocytes. The note with it: cited from earlier work.
The conditions of data set [3]: db/db and ob/ob mice; cited from earlier work.
Data set [4] concerns the target T1, Human recombinant liver glycogen phosphorylase α (hrl GPα) (Homo sapiens, UniProt P06737).
T1 sequence (P06737 1-847): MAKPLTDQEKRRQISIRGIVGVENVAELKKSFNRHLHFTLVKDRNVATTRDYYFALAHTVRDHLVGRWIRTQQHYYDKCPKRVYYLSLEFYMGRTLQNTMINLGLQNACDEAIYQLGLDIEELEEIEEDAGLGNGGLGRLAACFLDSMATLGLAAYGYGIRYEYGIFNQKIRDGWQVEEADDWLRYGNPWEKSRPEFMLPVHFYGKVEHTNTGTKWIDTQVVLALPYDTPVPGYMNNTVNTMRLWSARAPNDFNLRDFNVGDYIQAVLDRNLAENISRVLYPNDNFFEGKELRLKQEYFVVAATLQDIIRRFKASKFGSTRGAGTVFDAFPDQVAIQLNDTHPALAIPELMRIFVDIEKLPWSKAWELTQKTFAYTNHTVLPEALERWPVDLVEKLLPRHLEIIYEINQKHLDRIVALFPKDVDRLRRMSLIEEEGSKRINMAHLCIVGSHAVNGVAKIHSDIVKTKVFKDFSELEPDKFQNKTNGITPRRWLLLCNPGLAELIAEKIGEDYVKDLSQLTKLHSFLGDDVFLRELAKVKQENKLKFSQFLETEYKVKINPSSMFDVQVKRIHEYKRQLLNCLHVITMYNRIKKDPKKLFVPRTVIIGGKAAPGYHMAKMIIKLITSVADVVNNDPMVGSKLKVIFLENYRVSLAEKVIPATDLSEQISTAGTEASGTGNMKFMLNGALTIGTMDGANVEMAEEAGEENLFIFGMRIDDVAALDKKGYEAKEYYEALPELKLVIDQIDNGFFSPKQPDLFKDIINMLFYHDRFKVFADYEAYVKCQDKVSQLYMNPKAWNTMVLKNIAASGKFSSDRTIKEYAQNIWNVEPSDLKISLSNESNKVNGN
The data set is described as follows: Glycogen phosphorylase inhibition of glycogen degradation (multienzyme coupled assay, NADH fluorescence). It counts as biochemical. The note with it: glycogen degradation direction. The procedure:
The activity of the compounds is alternatively determined by measuring the inhibitory effect of the compounds on glycogen degradation, the production of glucose-1-phosphate from glycogen is monitored by the multienzyme coupled assay, as described in EP 0 846 464 A2, general method of Pesce et al (Pesce, M A, Bodourian, S H, Harris, R C, and Nicholson, J F (1977) Clinical Chemistry 23, […]). The reactions were in 384well microplate format in a volume of 50 μl. The change in fluorescence due to the conversion of the co-factor NAD to NADH is measured at 340 nm excitation, 465 nm emission in a Tecan Ultra Multifunctional Microplate Reader. The reaction is in 50 mM HEPES, 3.5 mM KH2PO4, 2.5 mM MgCl2, 2.5mM ethylene glycol-bis(b-aminoethyl ether) N,N,N′,N′-tetraacetic acid, 100 mM KCl, 8mM D-(+)-glucose pH7.2, containing 0.5 mM dithiothreitol, the assay buffer solution. Human recombinant liver glycogen phosphorylase α (hrl GPα) 20 nM is pre-incubated in assay buffer solution with 6.25 mM NAD, 1.25 mg type III glycogen at 1.25 mg ml^−1 the reagent buffer, for 30 minutes. […] The non-inhibited activity of GPα is measured in the presence of 10 μl 5% DMSO in assay buffer solution and maximum inhibition measured in the presence of 5 mgs ml^−1 N-ethylmaleimide. […] Relative Fluoresence Units (RFUs) are measured at 340 nm excitation, 465 nm emission. […]

For `CCN1C(C)=C(C(=O)OC(C)C)C(c2ccccc2Cl)C2=C1COC2=O` (stereo not drawn) [Bay R 3401], in data set [1], the “arterial plasma glucose following a glucagon challenge” value was “reduced significantly” and the “hepatic glucose output following a glucagon challenge” value was “reduced significantly”.
On to `CN(C)C(=O)[C@H](O)[C@H](Cc1ccccc1)NC(=O)c1cc2cc(Cl)ccc2[nH]1` [CP91149], for which, in data set [2], the glucagon stimulated glycogenolysis result was “reduce” and the “glucose output in hepatocytes” value is “reduce”. Further, in data set [3], the plasma glucose concentration entry is “reduced, in a dose related manner”.
As to `O=C(N[C@@H](Cc1ccc(F)cc1)C(=O)N1CCC(O)CC1)c1cc2cc(Cl)ccc2[nH]1` [CP320626], in data set [2], the glucagon stimulated glycogenolysis result was “reduce” and the “glucose output in hepatocytes” value is given as “reduce”. Also, in data set [3], the plasma glucose concentration result was “reduced, in a dose related manner”.
Regarding `O=C(CN(CCO)Cc1ccccc1)N[C@@H]1c2ccccc2C[C@H]1NC(=O)c1cc2cc(Cl)ccc2[nH]1` [Example 17, 5-Chloro-N-[(1R,2R)-1-({[(2-hydroxyethyl)(phenylmethyl)amino]acetyl}amino)-2,3-dihydro-1H-inden-2-yl]-1H-indole-2-carboxamide], the IC50 in data set [4] turned out to be 7.4 µM.

As usually defined, the IC50 is the midpoint of a concentration-inhibition curve.

These data come from patent US7138415B2, “Indolamid derivatives which possess glycogenphosphorylase inhibitory activity” (AstraZeneca AB, priority 2002, dated 2006).
